Reference: patent publication US9616006B2, “Methods and compositions for treating dermatological diseases and conditions” (priority 2007, dated 2017)

How the values were obtained:
PGE2 [1] = assay: TPA-induced PGE2 production in keratinocytes (ELISA); type: cell-based, human; details: 100 uM
IL-6 [2] = assay: TPA-induced IL-6 production in keratinocytes (ELISA); type: cell-based, human; details: 100 uM
IL-8 [3] = assay: TPA-induced IL-8 production in keratinocytes (ELISA); type: cell-based, human; details: 100 uM
TNF-α [4] = assay: TPA-induced TNF-α production in keratinocytes (ELISA); type: cell-based, human
Method: (§1) In one study, various concentrations of DHE were added to culture medium and these media were placed on human fibroblast cell cultures (results shown in FIG. 1). Cells were either not induced or induced with UVB radiation to stimulate cytokine/PGE-2 production. At 24 hours after treatment, the cell culture medium was removed and assayed by ELISA methods for the expression of PGE-2, various cytokines and chemokines.
(§2) When similar experiments were carried out with human keratinocytes, DHE was again found to markedly suppress the UVR induction of PGE-2, with a concentration of 50 uM inhibiting the production of PGE-2 by over 60% (results shown in FIG. 2). […] Further, since PGE-2 is known to be a principal factor in the development of actinic keratosis and skin cancer, DHE can also be used in treating these conditions.
Inflammatory mediators produced in the skin contribute to the development and propagation of such diseases as rosacea, psoriasis and atopic dermatitis. While many inflammatory mediators are involved in these diseases, TNF-α is known to be a major cytokine involved in psoriasis. For atopic dermatitis, TNF-α, IL-8, and MCP-1 are important mediators of inflammation in these diseases. DHE is effective in suppressing the TPA-induced (TPA is tetradecanolyl phorbol ester) production of TNF-α by approximately 50% at a 100 micromolar concentration (results shown in FIG. 3).
(§3) DHE and IE both have inhibitory effects on production of the inflammatory mediators in keratinocytes.

PGE2 [5] = assay: UV-induced PGE2 production in keratinocytes (ELISA); type: cell-based, human
Method: as §1, §2, §3

IL-6 [6] = assay: UV-induced IL-6 production in keratinocytes (ELISA); type: cell-based, human; details: 100 uM
Method: as §1, §2, §3

IL-8 [7] = assay: UV-induced IL-8 production in keratinocytes (ELISA); type: cell-based, human; details: 100 uM
Method: as §1, §2, §3

TNF-α [8] = assay: UV-induced TNF-α production in keratinocytes (ELISA); type: cell-based, human; details: 100 uM
Method: as §1, §2, §3

PGE-2 [9] = assay: IL-1-induced PGE-2 production in fibroblasts (ELISA); type: cell-based, human; details: Fibroblasts (IL-1); 100 uM
Method: as §1, with “Cells were either not induced or induced with UVB radiation to stimulate cytokine/PGE-2 production.” left out
(§4) DHE and IE both have inhibitory effects on the production of the inflammatory mediators in fibroblasts.

IL-6 [10] = assay: IL-1-induced IL-6 production in fibroblasts (ELISA); type: cell-based, human; details: Fibroblasts (IL-1); 100 uM
Method: as §1, with “Cells were either not induced or induced with UVB radiation to stimulate cytokine/PGE-2 production.” left out
as §4

IL-8 [11] = assay: IL-1-induced IL-8 production in fibroblasts (ELISA); type: cell-based, human; details: Fibroblasts (IL-1); 100 uM
PGE-2 [12] = assay: UV-induced PGE-2 production in fibroblasts (ELISA); type: cell-based, human
Method: as §1
As is shown in FIG. 1, UV radiation (UVR) treatment of fibroblasts results in a 6 fold increase in PGE-2.
as §4

IL-6 [13] = assay: UV-induced IL-6 production in fibroblasts (ELISA); type: cell-based, human; details: 100 uM
Method: as §1, §4

IL-8 [14] = assay: UV-induced IL-8 production in fibroblasts (ELISA); type: cell-based, human; details: 100 uM
Method: as §1, §4

MCP-1 [15] = assay: LPS-induced MCP-1 production in monocytes; type: cell-based
From the text: (§5) DHE and IE both have inhibitory effects on the production of the inflammatory mediators in monocytes.

IL-12 [16] = assay: LPS-induced IL-12 production in monocytes; type: cell-based; details: 100 uM
From the text: as §5

TNF-α [17] = assay: LPS-induced TNF-α production in monocytes; type: cell-based
From the text: as §5

IL-8 [18] = assay: LPS-induced IL-8 production in monocytes; type: cell-based
From the text: as §5

MCP-1 [19] = assay: TNF-α-induced MCP-1 production in monocytes; type: cell-based; details: 100 uM
From the text: as §5

IL-8 [20] = assay: TNF-α-induced IL-8 production in monocytes; type: cell-based; details: 100 uM
From the text: as §5

IL-12 [21] = assay: TNF-α-induced IL-12 production in monocytes; type: cell-based; details: 100 uM
From the text: as §5

collagen 1 mRNA = assay: Collagen mRNA in fibroblasts by RT-PCR; type: cell-based, human; details: fibroblast cell cultures treated 72 hours
From the text: (§6) The presently claimed and disclosed inventive concept(s) further contemplates use of various DHE, IE and EV compositions and salts, esters, ethers, and derivatives thereof to mitigate the effects of aging on the skin. For all aging studies, normal human fibroblast cell cultures were used. These cells normally produce collagen, elastin and hyaluronic acid. As the skin ages, the fibroblasts in the dermis lose their ability to produce these three key components of skin, and the skin consequently loses elasticity, thickness and smooth texture. In addition, as fibroblasts age, they increase the expression of certain enzymes that destroy collagen and elastin. There are about 13 of these enzymes, collectively referred to as MMPs (matrix metalloproteinases). One of the principal MMPs, MMP-1, is responsible for collagen degradation. […] Fibroblast cell cultures were treated with either IE, DHE or EV for 72 hours at which time the amount of collagen mRNA present in the cells was determined.

elastin mRNA = assay: Elastin mRNA in human dermal fibroblasts by RT-PCR; type: cell-based; details: 72 hours
From the text: as §6, with “In addition, as fibroblasts age, they increase the expression of certain enzymes that destroy collagen and elastin.” left out, “The image is from an electrophoresis gel of DNA amplified by PCR from fibroblast mRNA. This gel was analyzed and” for “Fibroblast cell cultures were treated with either IE, DHE or EV for 72 hours at which time”, “density” for “amount”, “each band quantified by image analysis software.” for “collagen mRNA present in the cells was determined.”

[22] = test system: HAS-2 (Hyaluronic acid synthase-2); assay: HAS-2 mRNA in fibroblasts by RT-PCR; type: cell-based, human; details: 72 hours
From the text: (§7) The presently claimed and disclosed inventive concept(s) further contemplates use of various DHE, IE and EV compositions and salts, esters, ethers, and derivatives thereof to mitigate the effects of aging on the skin. For all aging studies, normal human fibroblast cell cultures were used. These cells normally produce collagen, elastin and hyaluronic acid. As the skin ages, the fibroblasts in the dermis lose their ability to produce these three key components of skin, and the skin consequently loses elasticity, thickness and smooth texture. In addition, as fibroblasts age, they increase the expression of certain enzymes that destroy collagen and elastin. There are about 13 of these enzymes, collectively referred to as MMPs (matrix metalloproteinases). One of the principal MMPs, MMP-1, is responsible for collagen degradation. For experiments herein to determine the effects of DHE, IE and EV on collagen, elastin and hyaluronic acid, fibroblasts were treated with the compounds for 72 hours, mRNA was then isolated, and analyzed for abundance by RT-PCR (Reverse transcriptase-Polymerase Chain Reaction).
DHE, IE and EV, are also shown herein to stimulate mRNA for HAS-2. HAS-2 (Hyaluronic acid synthase-2) is the enzyme that manufactures hyaluronic acid (HA) in the skin. HA is a glycosaminoglycan important for maintaining moisture and suppleness in the skin. […] As the skin ages, the production of HA decreases and this causes the skin to sag and become thin.

TIMP-1 = TIMP-1 mRNA in fibroblasts by PCR; type: cell-based, human
From the text: as §7
Fibroblasts in the skin not only produce enzymes (MMPs) that destroy the skin matrix but they also produce proteins (Tissue Inhibitors of Metalloproteinases, i.e., TIMPS) that inhibit these enzymes. There are several TIMPs, but one that is most important for inhibiting MMPs is TIMP-1. […] Shown in FIG. 11 is PCR data showing the up-regulation of TIMP-1 mRNA by these compounds.

[23] = monocytes, LPS-induced (FIG. 4)

CCCc1ccc(O)c(OC)c1 [DHE, dihydroeugenol]
Percent Inhibition of PGE2 (PGE2 [1]): 77%
Percent Inhibition of IL-6 (IL-6 [2]): 30%
Percent Inhibition of IL-8 (IL-8 [3]): 45%
Percent Inhibition of TNF-α (TNF-α [4]; Keratinocytes (TPA), 100 uM): 12%
suppression of TPA-induced production of TNF-α (TNF-α [4]; keratinocytes (FIG. 3), 100 micromolar): approximately 50%
Percent Inhibition of PGE2 (PGE2 [5]; Keratinocytes (UV), 100 uM): 68%
inhibition of UVR-induced production of PGE-2 (PGE2 [5]; human keratinocytes, 50 uM): over 60%
Percent Inhibition of IL-6 (IL-6 [6]): 30%
Percent Inhibition of IL-8 (IL-8 [7]): 40%
Percent Inhibition of TNF-α (TNF-α [8]): 31%
Percent Inhibition of PGE-2 (PGE-2 [9]): 86%
Percent Inhibition of IL-6 (IL-6 [10]): 47%
Percent Inhibition of IL-8 (IL-8 [11]): 46%
Percent Inhibition of PGE-2 (PGE-2 [12]; Fibroblasts (UV), 100 uM): 67%
UVR induction of PGE-2 (PGE-2 [12]; human fibroblasts, 10 micromolar in culture media after irradiation, 24 hours): completely blocked
Percent Inhibition of IL-6 (IL-6 [13]): 49%
Percent Inhibition of IL-8 (IL-8 [14]): 11%
Percent Inhibition of MCP-1 (MCP-1 [15]; Monocytes (LPS), 100 uM): 60%
production of the chemokine MCP-1 (MCP-1 [15]; [23]): can inhibit the production
Percent Inhibition of IL-12 (IL-12 [16]): 66%
Percent Inhibition of TNF-α (TNF-α [17]; Monocytes (LPS), 100 uM): 78%
production of the cytokine TNF-α (TNF-α [17]; [23]): can inhibit the production
Percent Inhibition of IL-8 (IL-8 [18]; Monocytes (LPS), 100 uM): 70%
production of the chemokine IL-8 (IL-8 [18]; [23]): can inhibit the production
Percent Inhibition of MCP-1 (MCP-1 [19]): 46%
Percent Inhibition of IL-8 (IL-8 [20]): 72%
Percent Inhibition of IL-12 (IL-12 [21]): 98%
collagen production (collagen mRNA) (collagen 1 mRNA): stimulation
elastin levels (elastin mRNA) (elastin mRNA): increase
mRNA for HAS-2 [22]: stimulate
production of TIMP-1 (TIMP-1 mRNA) (TIMP-1): significantly stimulate
